± gives the expanded uncertainty stated by the source.
Conditions: Transpiration method

CC(O)CC(C)O (stereo not drawn) [2,4-pentanediol]
vapor or sublimation pressure (297.2 K, Liquid): 0.0048 ± 0.00035 kPa
vapor or sublimation pressure (300.2 K, Liquid): 0.00645 ± 0.00047 kPa
vapor or sublimation pressure (303.2 K, Liquid): 0.0085 ± 0.00061 kPa
vapor or sublimation pressure (306.2 K, Liquid): 0.0111 ± 0.0008 kPa
vapor or sublimation pressure (309.2 K, Liquid): 0.01453 ± 0.001 kPa
vapor or sublimation pressure (312.2 K, Liquid): 0.01892 ± 0.0014 kPa
vapor or sublimation pressure (315.3 K, Liquid): 0.0239 ± 0.0017 kPa
vapor or sublimation pressure (318.4 K, Liquid): 0.03119 ± 0.0022 kPa
vapor or sublimation pressure (321.4 K, Liquid): 0.04095 ± 0.003 kPa
vapor or sublimation pressure (324.4 K, Liquid): 0.05507 ± 0.004 kPa
vapor or sublimation pressure (327.5 K, Liquid): 0.07024 ± 0.005 kPa
vapor or sublimation pressure (330.5 K, Liquid): 0.08735 ± 0.0062 kPa
vapor or sublimation pressure (333.4 K, Liquid): 0.1096 ± 0.0078 kPa
vapor or sublimation pressure (336.5 K, Liquid): 0.1376 ± 0.0098 kPa
vapor or sublimation pressure (339.2 K, Liquid): 0.1648 ± 0.012 kPa
vapor or sublimation pressure (344.4 K, Liquid): 0.2419 ± 0.017 kPa
vapor or sublimation pressure (347.3 K, Liquid): 0.2929 ± 0.021 kPa

CC(CO)CO [2-methyl-1,3-propanediol]
vapor or sublimation pressure (297.3 K, Liquid): 0.00204 ± 0.00015 kPa
vapor or sublimation pressure (300.4 K, Liquid): 0.00285 ± 0.00021 kPa
vapor or sublimation pressure (303.4 K, Liquid): 0.00364 ± 0.00026 kPa
vapor or sublimation pressure (306.4 K, Liquid): 0.0049 ± 0.00036 kPa
vapor or sublimation pressure (309.4 K, Liquid): 0.00661 ± 0.00048 kPa
vapor or sublimation pressure (312.4 K, Liquid): 0.00841 ± 0.0006 kPa
vapor or sublimation pressure (312.5 K, Liquid): 0.00861 ± 0.00061 kPa
vapor or sublimation pressure (314.5 K, Liquid): 0.00996 ± 0.00072 kPa
vapor or sublimation pressure (316.4 K, Liquid): 0.01205 ± 0.00086 kPa
vapor or sublimation pressure (318.5 K, Liquid): 0.0141 ± 0.001 kPa
vapor or sublimation pressure (319.5 K, Liquid): 0.01551 ± 0.0011 kPa
vapor or sublimation pressure (321.4 K, Liquid): 0.01842 ± 0.0013 kPa
vapor or sublimation pressure (322.5 K, Liquid): 0.01984 ± 0.0014 kPa
vapor or sublimation pressure (323.5 K, Liquid): 0.02169 ± 0.0015 kPa
vapor or sublimation pressure (323.6 K, Liquid): 0.02202 ± 0.0016 kPa
vapor or sublimation pressure (326.4 K, Liquid): 0.02689 ± 0.0019 kPa
vapor or sublimation pressure (326.6 K, Liquid): 0.02817 ± 0.002 kPa
vapor or sublimation pressure (328.5 K, Liquid): 0.03259 ± 0.0023 kPa
vapor or sublimation pressure (328.6 K, Liquid): 0.03396 ± 0.0024 kPa
vapor or sublimation pressure (331.4 K, Liquid): 0.04115 ± 0.0029 kPa
vapor or sublimation pressure (333.4 K, Liquid): 0.0469 ± 0.0034 kPa
vapor or sublimation pressure (336.3 K, Liquid): 0.05931 ± 0.0043 kPa
vapor or sublimation pressure (338.6 K, Liquid): 0.07262 ± 0.0052 kPa
vapor or sublimation pressure (341.4 K, Liquid): 0.08656 ± 0.0061 kPa
vapor or sublimation pressure (342.6 K, Liquid): 0.09448 ± 0.0069 kPa
vapor or sublimation pressure (343.5 K, Liquid): 0.1068 ± 0.0079 kPa
vapor or sublimation pressure (347.6 K, Liquid): 0.1379 ± 0.0098 kPa
vapor or sublimation pressure (349.3 K, Liquid): 0.1589 ± 0.011 kPa
vapor or sublimation pressure (352.5 K, Liquid): 0.1921 ± 0.014 kPa
vapor or sublimation pressure (355.4 K, Liquid): 0.2407 ± 0.017 kPa
vapor or sublimation pressure (357.5 K, Liquid): 0.2643 ± 0.019 kPa

CC(C)(CO)CO [2,2-dimethyl-1,3-propanediol]
vapor or sublimation pressure (283.9 K, Crystal 2): 0.00029 ± 2e-05 kPa
vapor or sublimation pressure (288.5 K, Crystal 2): 0.00052 ± 4e-05 kPa
vapor or sublimation pressure (291.2 K, Crystal 2): 0.00074 ± 6e-05 kPa
vapor or sublimation pressure (295.2 K, Crystal 2): 0.00119 ± 9e-05 kPa
vapor or sublimation pressure (298.4 K, Crystal 2): 0.00174 ± 0.00013 kPa
vapor or sublimation pressure (301.7 K, Crystal 2): 0.00261 ± 0.00019 kPa
vapor or sublimation pressure (304.7 K, Crystal 2): 0.00367 ± 0.00027 kPa
vapor or sublimation pressure (307.9 K, Crystal 2): 0.00535 ± 0.00039 kPa
vapor or sublimation pressure (309.4 K, Crystal 2): 0.00615 ± 0.00044 kPa
vapor or sublimation pressure (311.3 K, Crystal 2): 0.00735 ± 0.00053 kPa
vapor or sublimation pressure (314.3 K, Crystal 1): 0.01057 ± 0.00077 kPa
vapor or sublimation pressure (317.3 K, Crystal 1): 0.01416 ± 0.001 kPa
vapor or sublimation pressure (320.2 K, Crystal 1): 0.01849 ± 0.0013 kPa
vapor or sublimation pressure (323.4 K, Crystal 1): 0.02447 ± 0.0018 kPa
vapor or sublimation pressure (326.4 K, Crystal 1): 0.03147 ± 0.0023 kPa
vapor or sublimation pressure (329.4 K, Crystal 1): 0.04056 ± 0.0029 kPa
vapor or sublimation pressure (332.3 K, Crystal 1): 0.05153 ± 0.0037 kPa
vapor or sublimation pressure (335.3 K, Crystal 1): 0.06721 ± 0.0048 kPa
vapor or sublimation pressure (338.2 K, Crystal 1): 0.08442 ± 0.006 kPa
vapor or sublimation pressure (341.2 K, Crystal 1): 0.1056 ± 0.0075 kPa
vapor or sublimation pressure (344.2 K, Crystal 1): 0.1314 ± 0.0094 kPa
vapor or sublimation pressure (347.2 K, Crystal 1): 0.1654 ± 0.012 kPa

CC(O)CCO (stereo not drawn) [1,3-butanediol]
vapor or sublimation pressure (288.3 K, Liquid): 0.00139 ± 0.0001 kPa
vapor or sublimation pressure (290.3 K, Liquid): 0.00168 ± 0.00012 kPa
vapor or sublimation pressure (292.9 K, Liquid): 0.00235 ± 0.00017 kPa
vapor or sublimation pressure (303.5 K, Liquid): 0.00651 ± 0.00046 kPa
vapor or sublimation pressure (308.3 K, Liquid): 0.00994 ± 0.00071 kPa
vapor or sublimation pressure (311.3 K, Liquid): 0.01301 ± 0.00094 kPa
vapor or sublimation pressure (314.3 K, Liquid): 0.01723 ± 0.0012 kPa
vapor or sublimation pressure (317.3 K, Liquid): 0.02182 ± 0.0016 kPa
vapor or sublimation pressure (320.3 K, Liquid): 0.02852 ± 0.0021 kPa
vapor or sublimation pressure (323.3 K, Liquid): 0.03664 ± 0.0026 kPa
vapor or sublimation pressure (326.3 K, Liquid): 0.04618 ± 0.0033 kPa
vapor or sublimation pressure (329.3 K, Liquid): 0.05855 ± 0.0042 kPa
vapor or sublimation pressure (332.3 K, Liquid): 0.07427 ± 0.0053 kPa

CC(O)CC(C)(C)O (stereo not drawn) [2-methyl-2,4-pentanediol]
vapor or sublimation pressure (285.2 K, Liquid): 0.0025 ± 0.00018 kPa
vapor or sublimation pressure (287.9 K, Liquid): 0.00333 ± 0.00024 kPa
vapor or sublimation pressure (291.2 K, Liquid): 0.00474 ± 0.00034 kPa
vapor or sublimation pressure (294.2 K, Liquid): 0.00648 ± 0.00047 kPa
vapor or sublimation pressure (297.2 K, Liquid): 0.00858 ± 0.00062 kPa
vapor or sublimation pressure (300.2 K, Liquid): 0.01147 ± 0.00082 kPa
vapor or sublimation pressure (303.2 K, Liquid): 0.01471 ± 0.0011 kPa
vapor or sublimation pressure (306.5 K, Liquid): 0.01997 ± 0.0014 kPa
vapor or sublimation pressure (309.4 K, Liquid): 0.02565 ± 0.0018 kPa
vapor or sublimation pressure (312.5 K, Liquid): 0.03274 ± 0.0023 kPa
vapor or sublimation pressure (315.2 K, Liquid): 0.04092 ± 0.0029 kPa
vapor or sublimation pressure (318.2 K, Liquid): 0.05208 ± 0.0037 kPa
vapor or sublimation pressure (321.2 K, Liquid): 0.06475 ± 0.0046 kPa
vapor or sublimation pressure (323.3 K, Liquid): 0.07752 ± 0.0055 kPa
vapor or sublimation pressure (326.3 K, Liquid): 0.09448 ± 0.0067 kPa
vapor or sublimation pressure (329.4 K, Liquid): 0.1239 ± 0.0088 kPa

OCCCO [propan-1,3-diol]
vapor or sublimation pressure (293.5 K, Liquid): 0.00186 ± 0.00014 kPa
vapor or sublimation pressure (303.2 K, Liquid): 0.00447 ± 0.00032 kPa
vapor or sublimation pressure (309.3 K, Liquid): 0.00788 ± 0.00056 kPa
vapor or sublimation pressure (312.2 K, Liquid): 0.00997 ± 0.00072 kPa
vapor or sublimation pressure (315.3 K, Liquid): 0.01329 ± 0.00095 kPa
vapor or sublimation pressure (318.4 K, Liquid): 0.01659 ± 0.0012 kPa
vapor or sublimation pressure (321.3 K, Liquid): 0.02168 ± 0.0016 kPa
vapor or sublimation pressure (324.3 K, Liquid): 0.02764 ± 0.002 kPa
vapor or sublimation pressure (327.3 K, Liquid): 0.03558 ± 0.0025 kPa
vapor or sublimation pressure (330.3 K, Liquid): 0.04372 ± 0.0031 kPa
vapor or sublimation pressure (333.5 K, Liquid): 0.05556 ± 0.004 kPa
vapor or sublimation pressure (336.4 K, Liquid): 0.06842 ± 0.0049 kPa
vapor or sublimation pressure (339.4 K, Liquid): 0.08464 ± 0.006 kPa
vapor or sublimation pressure (342.3 K, Liquid): 0.1053 ± 0.0075 kPa

Reference: the NIST ThermoML archive (doi:10.1021/je060419q)
